Values after ≈ are worked out from the molar mass of the structure shown.
Conditions: buffer; pH 7.4; 200.0 µM

Row | solubility kinetic [µg/mL] | Structure (SMILES)
1 | > 45.1 | COc1ccc2[nH]cc(C(=O)CN3CC(C)CC(C)C3)c2c1 (stereo not given)
2 | > 49.1 | O=C(O)C1C2C=CC(O2)C1C(=O)Nc1cccc(C(F)(F)F)c1 (stereo not given)
3 | 38.7 (≈ 123 µM) | Cc1cc(C(=O)NCc2ccc3c(c2)OCO3)ccc1[N+](=O)[O-]
4 | 51.7 (≈ 140 µM) | CCCS(=O)(=O)NCCc1csc(-c2ccc(OC)c(OC)c2)n1
5 | 0.9 (≈ 3.43 µM) | Clc1ccc(CN2CCSCC2)c(Cl)c1
6 | > 34.8 | O=c1ccnc(Nc2ccc([N+](=O)[O-])cc2)[nH]1
7 | 4 (≈ 13.3 µM) | COc1ccc(-c2cc(C(=O)N3CCCCCC3)no2)cc1
8 | < 0.7 | O=C1c2ccccc2S(=O)(=O)N1Cc1c(F)cccc1Cl
9 | 8.7 | C#CCN(C)CCCOc1ccc(Cl)cc1Cl.Cl
10 | > 49.7 | COc1ccc(CC(=O)OCC(=O)NCc2ccc(F)cc2)cc1
11 | 36.2 (≈ 113 µM) | COc1ccc(C2N(c3ccccc3)C(=O)C2(F)F)cc1OC (stereo not given)
12 | 49.9 (≈ 135 µM) | CS(=O)(=O)c1ccc(Cl)c(NC(=O)CCNC(=O)c2ccco2)c1
13 | > 37.2 | NC(N)=NC1=NC(=O)C(Cc2ccccc2)S1 (stereo not given)
14 | 30.4 (≈ 104 µM) | CCOc1cccc(NC(=O)/C(C#N)=C\c2cccnc2)c1
15 | 24.7 (≈ 75 µM) | CC1CN(C2=N/C(=C/c3ccc4c(c3)OCO4)C(=O)N2)CC(C)O1 (stereo not given)
16 | 1.7 (≈ 5.76 µM) | Cc1ccc(Nc2nc(C)c3c(n2)CC(C)CC3=O)c(C)c1 (stereo not given)
17 | 3 (≈ 8.84 µM) | Cc1cccc(N2C(=O)CC(SC(N)=Nc3ccccc3)C2=O)c1 (stereo not given)
18 | > 59.3 | NC(=O)c1ccc(NC(=O)COC(=O)CCN2C(=O)c3ccccc3C2=O)cc1
19 | < 0.2 | NC(=O)c1cc([N+](=O)[O-])ccc1NCCc1ccccc1
20 | > 46.3 | COC(=O)c1ccc(S(=O)(=O)NCc2ccccc2)n1C

Row | solubility kinetic [µg/mL] | Structure (SMILES)
21 | 39 (≈ 124 µM) | O=C(Cn1cnc([N+](=O)[O-])c1)Nc1ccccc1C(F)(F)F
22 | 5 (≈ 13.8 µM) | COc1ccccc1NS(=O)(=O)c1cc(N)ccc1N1CCOCC1
23 | 7.9 (≈ 17.7 µM) | COc1ccc(NC(=O)CCOc2cc(C)ccc2C)cc1S(=O)(=O)N1CCCCC1
24 | 2.9 (≈ 10 µM) | CCc1ccccc1NC(=O)COC(=O)c1cccs1
25 | 6.3 (≈ 17.9 µM) | O=C(COC(=O)/C=C/c1cccc(Cl)c1)Nc1c(F)cccc1F
26 | > 51.5 | CC(O)CNc1nc2c(c(=O)n(Cc3ccccc3)c(=O)n2C)n1C (stereo not given)
27 | 35.4 (≈ 139 µM) | Cc1ccc(C)c(NC(=O)NCc2ccccn2)c1
28 | > 37.8 | NC(=S)Nc1cccc(-c2n[nH]c(=S)o2)c1
29 | 0.8 (≈ 2.77 µM) | Cc1cc(C)c(NC(=O)Nc2ccccc2C)c(Cl)c1
30 | 1 (≈ 3.01 µM) | COc1cc2nc(NC(=O)c3ccco3)sc(=O)c2cc1OC
31 | 41.5 (≈ 141 µM) | CN(C)S(=O)(=O)c1cccc(C(=O)c2nccn2C)c1
32 | 13.8 (≈ 57.4 µM) | CC(C)(C)C(=O)Nc1ccc(F)cc1[N+](=O)[O-]
33 | 2.5 (≈ 8.58 µM) | COc1ccccc1CC(=O)Nc1cccc2ccccc12
34 | > 49.4 | O=C(NCc1ccco1)C1CC(O)CN1C(=O)Nc1ccccc1 (stereo not given)
35 | 46.3 (≈ 138 µM) | COc1cccc(CN2CCN(C3CCOCC3)CC2CCO)c1 (stereo not given)
36 | 0.6 (≈ 1.69 µM) | Cc1ccc(C(=O)NC2CCN(C(=O)Nc3ccc(F)cc3)CC2)cc1
37 | > 53.8 | Cc1c(NS(=O)(=O)c2ccc(N)cc2)c(=O)n(-c2ccccc2)n1C
38 | > 30.5 | CCC(=O)Nc1ccc2c(c1)ncn2C
39 | > 46.4 | COc1cc(N(C)C)c([N+](=O)[O-])cc1C(=O)N1CCOCC1
40 | > 48.1 | CC(=O)N1CCN(S(=O)(=O)c2ccc(F)c(Cl)c2)CC1

Row | solubility kinetic [µg/mL] | Structure (SMILES)
41 | 2.8 (≈ 10.2 µM) | Cc1c(C(=O)NC2CCCCC2)oc2ccc(F)cc12
42 | 8.6 (≈ 29.5 µM) | COc1cc(OC)cc(C(=O)NC2CCCCCCC2)c1
43 | > 53.8 | Cc1ccc(NS(=O)(=O)c2cccc(C(=O)N3CCCCC3)c2)cc1
44 | 51.9 (≈ 147 µM) | Fc1cccc(NC(=S)N2CCn3cccc3C2c2cccnc2)c1 (stereo not given)
45 | 7.2 (≈ 29.5 µM) | O=C(Nc1ccc([N+](=O)[O-])cn1)c1cccnc1
46 | > 56 | O=S(=O)(/N=C(/Nc1cccnc1)c1ccccc1)c1ccc(F)cc1F
47 | 32.2 (≈ 104 µM) | O=C(NC1CCS(=O)(=O)C1)c1ccc(Br)o1 (stereo not given)
48 | 28 (≈ 93.8 µM) | CCC(C)NC(=O)N1c2ccccc2Sc2ccccc21 (stereo not given)
49 | 28.9 (≈ 103 µM) | Brc1ccc(C2=CSC3=NCCN23)cc1
50 | 40.8 | Cc1ccc(C(=O)OC(C)CN2CCN(C)CC2)cc1.Cl (stereo not given)
51 | > 31.7 | CC1CCCN(Cc2csc(N)n2)C1 (stereo not given)
52 | 1.6 (≈ 4.3 µM) | CCOC(=O)c1c(NC(=O)c2cc(C)on2)c2cc([N+](=O)[O-])ccc2n1C
53 | > 42.9 | O=C(CNC(=O)c1ccc(C(F)(F)F)cc1)NC1CC1
54 | 44.2 (≈ 138 µM) | CCCCC(=O)N1CCN(c2nc3ccc(F)cc3s2)CC1
55 | > 45.5 | O=C(CNC(=O)c1ccccc1)OCC(=O)c1cccs1
56 | 35.5 (≈ 134 µM) | Cc1csc(SCC(=O)Nc2ccccc2)n1
57 | 31.1 (≈ 119 µM) | COC(=O)CSC(=S)N1C(C)CCCC1C (stereo not given)
58 | > 51.2 | CC(C(=O)NCc1ccccc1)N1CCN(c2ccc(F)cc2)CC1 (stereo not given)
59 | 41.5 (≈ 128 µM) | CC(NC(=O)CCCc1c[nH]c2ccccc12)c1ccc(F)cc1 (stereo not given)

Row | Structure (SMILES) | solubility kinetic [µg/mL]
60 | O=C(COc1ccc(Cl)cc1)NCCc1cnc[nH]1 | > 42

From PubChem BioAssay AID1996
